PMC10833137, “Characterization of a novel 4-guanidinobutyrase from Candida parapsilosis” (FEMS Yeast Research, 2024)
Like-named read-outs stand apart in the source and are kept apart here.

Columns and labels:
[1] = biological target: T1, AnGBase (A. niger GBase) (Aspergillus niger, UniProt W8R465); assay: product inhibition, Cheng-Prusoff; type: biochemical
T1 sequence (W8R465 21-422 limits assumed): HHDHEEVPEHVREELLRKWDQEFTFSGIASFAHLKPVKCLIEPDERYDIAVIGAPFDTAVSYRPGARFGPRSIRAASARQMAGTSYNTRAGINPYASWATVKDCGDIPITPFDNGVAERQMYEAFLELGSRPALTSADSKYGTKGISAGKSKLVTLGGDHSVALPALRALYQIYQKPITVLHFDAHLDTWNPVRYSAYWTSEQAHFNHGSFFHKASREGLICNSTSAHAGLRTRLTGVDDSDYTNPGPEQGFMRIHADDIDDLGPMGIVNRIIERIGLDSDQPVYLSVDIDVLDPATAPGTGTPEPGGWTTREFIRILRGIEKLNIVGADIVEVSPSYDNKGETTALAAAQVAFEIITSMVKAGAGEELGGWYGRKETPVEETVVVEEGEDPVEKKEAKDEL
Description: product inhibition, Cheng-Prusoff on AnGBase (A. niger GBase)

[2] = biological target: T2, CpGBase (C. parapsilosis 4-guanidinobutyrase; CparGBase) (Lodderomyces parapsilosis, UniProt G8B5B7); assay: modified Archibald urea assay, product inhibition, Cheng-Prusoff; type: biochemical
T2 construct: gene CPAR2_602270
T2 sequence (G8B5B7 16-367 limits assumed): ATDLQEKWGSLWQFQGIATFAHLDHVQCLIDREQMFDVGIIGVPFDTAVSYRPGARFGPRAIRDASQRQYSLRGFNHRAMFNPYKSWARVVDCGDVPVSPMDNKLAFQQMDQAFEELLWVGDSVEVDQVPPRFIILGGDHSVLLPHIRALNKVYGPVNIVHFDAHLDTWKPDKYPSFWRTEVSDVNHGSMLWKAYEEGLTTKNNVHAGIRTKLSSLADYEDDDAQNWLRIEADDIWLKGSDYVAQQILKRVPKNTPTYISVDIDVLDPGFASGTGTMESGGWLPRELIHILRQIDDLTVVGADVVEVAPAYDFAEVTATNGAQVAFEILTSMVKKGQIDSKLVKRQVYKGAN
Description: modified Archibald urea assay, product inhibition, Cheng-Prusoff on CpGBase (C. parapsilosis 4-guanidinobutyrase; CparGBase)

[3] = substrate: N=C(N)NCCC(=O)O; assay: purified protein; type: biochemical, Lodderomyces parapsilosis; conditions: 20 mM phosphate buffer, 37 °C, 20 min, enriched enzyme
[4] = substrate: N=C(N)NCCCC(=O)O; assay: purified protein; type: biochemical, Lodderomyces parapsilosis; conditions: 20 mM phosphate buffer, 37 °C, 20 min, enriched enzyme

Q: What does the source list for `NCCCC(=O)O` [GABA]?
A: Ki ([1]; read-out: KI / GABA): 4.1 ± 1.1 mM; Ki ([2]; read-out: KI / GABA): 3.1 ± 0.5 mM

Q: Which Ki ([1]; read-out: KI / β-alanine) does the source give for `NCCC(=O)O` [β-alanine] here?
A: 48.7 ± 0.8 mM

Q: What about the Ki ([2]; read-out: KI / β-alanine) of the same molecule?
A: 7.8 ± 1.2 mM

B1: CpGBase (C. parapsilosis 4-guanidinobutyrase; CparGBase) (Lodderomyces parapsilosis CDC317) (protein)
chain: ATDLQEKWGSLWQFQGIATFAHLDHVQCLIDREQMFDVGIIGVPFDTAVSYRPGARFGPRAIRDASQRQYSLRGFNHRAMFNPYKSWARVVDCGDVPVSPMDNKLAFQQMDQAFEELLWVGDSVEVDQVPPRFIILGGDHSVLLPHIRALNKVYGPVNIVHFDAHLDTWKPDKYPSFWRTEVSDVNHGSMLWKAYEEGLTTKNNVHAGIRTKLSSLADYEDDDAQNWLRIEADDIWLKGSDYVAQQILKRVPKNTPTYISVDIDVLDPGFASGTGTMESGGWLPRELIHILRQIDDLTVVGADVVEVAPAYDFAEVTATNGAQVAFEILTSMVKKGQIDSKLVKRQVYKGAN
Q: With B1 as the molecule, how does the Km [3] read?
A: 9.6 ± 0.4 mM

Q: What about the Km [4] of the same molecule?
A: 4.6 ± 0.5 mM
